In the first experiment the target is T1, Human GHS-R (ghrelin receptor) (Homo sapiens, UniProt Q92847).
T1 construct: The full-length gene was transferred into pCDN for expression analysis; expressed in transfected cells; host or cells: U2OS cells transduced with human GHSR BacMam virus
T1 sequence (Q92847 whole entry): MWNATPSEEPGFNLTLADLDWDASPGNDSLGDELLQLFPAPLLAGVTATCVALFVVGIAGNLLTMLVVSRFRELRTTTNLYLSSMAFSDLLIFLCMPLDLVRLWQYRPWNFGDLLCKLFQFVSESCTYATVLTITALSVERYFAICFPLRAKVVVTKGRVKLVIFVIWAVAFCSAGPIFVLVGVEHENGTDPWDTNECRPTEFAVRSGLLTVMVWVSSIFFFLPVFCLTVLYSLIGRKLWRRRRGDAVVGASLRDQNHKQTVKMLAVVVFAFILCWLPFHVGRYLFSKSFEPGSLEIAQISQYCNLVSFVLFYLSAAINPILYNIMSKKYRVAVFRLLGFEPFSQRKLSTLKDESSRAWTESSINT
Briefly: GHSR Agonist BACMAM FLIPR Assay (Method X or Y). Format: cell-based. Conditions: U2OS cells, maximum asymptote relative to that of the hGhrelin concentration response curve. The method, then: (§1) 24 h prior to assay U2OS cells at confluence 100% were harvested and spun down. The supernatant was removed and the cells resuspended in media (DMEM+10% FBS+1% L-Glutamine). A cell count was performed using the Cedex instrumentation, and the concentration of cells was adjusted using media to give 200K cells per mL (10K cells/50 μL).
(§2) Human GHSR BACMAM virus was added to the cell suspension at an appropriate % volume (calculated for individual batches of BACMAM virus as viral titres vary). The transduced cell suspension was dispensed into FLIPR 384-well clear bottom plates, 50 μL per well. Cell plates were incubated at 37° C. overnight.
Master compound plates were prepared in 100% DMSO. 3 mM was the top concentration (giving 10 μM final concentration) and they were serially diluted 1 in 4. 1 μL from the master plate was transferred to a daughter plate, to which was added 50 μL of compound dilution (Tyrodes {Elga water+145 mM NaCl+5 mM KCl+20 mM HEPES+10 mM glucose+1 mM MgCl2+1.5 mM CaCl2}. For the agonist assay, the compound buffer also contained 0.1% BSA. This plate was used for the assay. Ghrelin was always prepared in buffer containing 0.1% BSA.
Master compound plates were prepared in 100% DMSO. 3 mM was the top concentration (giving 10 μM final concentration) and they were serially diluted 1 in 4. 1 μL from the master plate was transferred to a daughter plate, to which was added 50 μL of compound dilution (HBSS {Elga water+137 mM NaCl+5 mM KCl+0.41 mMa KH2PO4(anhyd)+20 mM HEPES+5 mM glucose+0.81 mM MgSO4(anhyd)+1.3 mM CaCl2+4.16 mM NaHCO3}. For the agonist assay, the compound buffer also contained 0.1% BSA. This plate was used for the assay. Ghrelin was always prepared in buffer containing 0.1% BSA.
Media was aspirated from cell plates using a cell washer (leaving 10 μL of media). Cells were immediately loaded with loading buffer (Tyrodes buffer-(Elga water+145 mM NaCl+5 mM KCl+20 mM HEPES+10 mM glucose+1 mM MgCl2)+1.5 mM CaCl2+0.714 mg/mL Probenecid (predissolved in 1 M NaOH)+0.25 mM brilliant black+2 μM Fluo 4 dye, and incubated at 37.5° C., 5% CO2 for 90 min. The plates were placed in a FLuorimetric Imaging Plate Reader (FLIPR, Molecular Devices) where 10 μL of compound, prepared according to method A above, was added to the cells and fluorescence measurements were taken. Maximum changes in fluorescence were plotted as a percentage of the maximum response elicited by 300 nM hGhrelin and curves fitted using a 4-parameter logistic equation to generate pEC50 values. Intrinsic activity of the compounds was calculated by using the maximum asymptote of it's concentration response curve relative to the maximum asymptote of the hGhrelin concentration response curve.
Media was aspirated from cell plates using a cell washer (leaving 10 μL of media). Cells were immediately loaded with loading buffer (HBSS (Elga water+137 mM NaCl+5 mM KCl+0.41 mM KH2PO4(anhyd)+20 mM HEPES+5 mM glucose+0.81 mM MgSO4(anhyd))+1.3 mM CaCl2+4.16 mM NaHCO3+0.714 mg/mL Probenecid (predissolved in 1 M NaOH)+0.25 mM brilliant black+2 μM Fluo 4 dye, and incubated at 37.5° C., 5% CO2 for 90 min. The plates were placed in a FLuorimetric Imaging Plate Reader (FLIPR, Molecular Devices) where 10 μL of compound, prepared according to method B above, was added to the cells and fluorescence measurements were taken. Maximum changes in fluorescence were plotted as a percentage of the maximum response elicited by 300 nM hGhrelin and curves fitted using a 4-parameter logistic equation to generate pEC50 values. Intrinsic activity of the compounds was calculated by using the maximum asymptote of it's concentration response curve relative to the maximum asymptote of the hGhrelin concentration response curve.
Regarding `Cc1ccc(C(C(=O)NNc2cc(C(F)(F)F)cc(C(F)(F)F)c2)N2CCN3CCC[C@@H]3C2)c(C)n1` (single isomer, unassigned; diastereoisomer 1) [Compound 80], the “intrinsic activity (IA)” value came out at 0.4.
Turning to `CN1CCN(C(C(=O)NNc2cc(C(F)(F)F)cc(C(F)(F)F)c2)c2cccc(Cl)c2)CC1.O=CO` (racemic) [Compound 45, (±)-formic acid-N′-[3,5-bis(trifluoromethyl)phenyl]-2-(3-chlorophenyl)-2-(4-methyl-1-piperazinyl)acetohydrazide], the “intrinsic activity (IA)” value turned out to be 0.4.
Regarding `CN1CCN(C(C(=O)NNc2cc(C(F)(F)F)cc(C(F)(F)F)c2)c2ccc3c(c2)CCO3)CC1` (single isomer, unassigned; enantiomer 1) [Compound 20, N′-[3,5-bis(trifluoromethyl)phenyl]-2-(2,3-dihydro-1-benzofuran-5-yl)-2-(4-methyl-1-piperazinyl)acetohydrazide-enantiomer 1], the “intrinsic activity (IA)” value is 0.4.
For `O=C(NNc1cc(C(F)(F)F)cc(C(F)(F)F)c1)C(c1ccccc1Cl)N1CCN2CCC[C@@H]2C1` (single isomer, unassigned; diastereoisomer 2) [Compound 85], the “intrinsic activity (IA)” value is recorded as 0.4.
Take `CN1CCN(C(C(=O)NNc2cc(C(F)(F)F)cc(C(F)(F)F)c2)c2cccc3c2OC(F)(F)O3)CC1` (racemic) [Compound 46, (±)-N′-[3,5-bis(trifluoromethyl)phenyl]-2-(2,2-difluoro-1,3-benzodioxol-4-yl)-2-(4-methyl-1-piperazinyl)acetohydrazide]: the “intrinsic activity (IA)” value worked out at 0.4.
On the same count and under the same terms, next, `CN1CCN(C(C(=O)NNc2cc(C(F)(F)F)cc(C(F)(F)F)c2)c2ccccc2Cl)CC1` (single isomer, unassigned; enantiomer 1) [Compound 9, N′-[3,5-bis(trifluoromethyl)phenyl]-2-(2-chlorophenyl)-2-(4-methyl-1-piperazinyl)acetohydrazide-enantiomer 1]: 0.4; `O=C(NNc1cc(C(F)(F)F)cc(C(F)(F)F)c1)C(c1ccccc1Cl)N1CCN2CCC[C@H]2C1` (single isomer, unassigned; diastereoisomer 2) [Compound 83]: 0.4.
The same measure, in the same setting: next, `Cc1cccnc1C(C(=O)NNc1cc(C(F)(F)F)cc(C(F)(F)F)c1)N1CCN(C)CC1` (single isomer, unassigned; enantiomer 1) [Compound 55, N′-[3,5-bis(trifluoromethyl)phenyl]-2-(4-methyl-1-piperazinyl)-2-(3-methyl-2-pyridinyl)acetohydrazide-enantiomer 1]: 0.4.
On to `Cc1cccnc1C(C(=O)NNc1cc(C(F)(F)F)cc(C(F)(F)F)c1)N1CCN(C)CC1` (single isomer, unassigned; enantiomer 2) [Compound 56, N′-[3,5-bis(trifluoromethyl)phenyl]-2-(4-methyl-1-piperazinyl)-2-(3-methyl-2-pyridinyl)acetohydrazide-enantiomer 2], for which the “intrinsic activity (IA)” value came to 0.4.
Still for that read-out and setting: next, `CN1CCN(C(C)(C(=O)NNc2cc(C(F)(F)F)cc(C(F)(F)F)c2)c2ccccn2)CC1` (single isomer, unassigned) [Compound 130, N′-[3,5-bis(trifluoromethyl)phenyl]-2-(4-methyl-1-piperazinyl)-2-(2-pyridinyl)propanohydrazide]: 0.4.
The same measure, in the same setting: next, `O=C(NNc1cc(C(F)(F)F)cc(C(F)(F)F)c1)C(c1cccnc1)N1CCN2CCC[C@H]2C1` (single isomer, unassigned) [Compound 126]: 0.4; `CN1CCN(C(C(=O)NNc2cc(C(F)(F)F)cc(C(F)(F)F)c2)c2cccc(OC(F)(F)F)c2)CC1` (racemic) [Compound 37, (±)-N′-[3,5-bis(trifluoromethyl)phenyl]-2-(4-methyl-1-piperazinyl)-2-{3-[(trifluoromethyl)oxy]phenyl}acetohydrazide]: 0.4.
Consider `CN1CCN(C(C(=O)NNc2cc(C(F)(F)F)cc(C(F)(F)F)c2)c2cncnc2)CC1` (single isomer, unassigned; enantiomer 1) [Compound 78, N′-[3,5-bis(trifluoromethyl)phenyl]-2-(4-methyl-1-piperazinyl)-2-(5-pyrimidinyl)acetohydrazide-enantiomer 1], for which the “intrinsic activity (IA)” value was determined as 0.4.
Take `CN1CCC(C(C(=O)NNc2cc(Cl)cc(Cl)c2)c2cccc3ccccc23)CC1` (single isomer, unassigned; enantiomer 1) [Compound 73, N′-(3,5-dichlorophenyl)-2-(1-methyl-4-piperidinyl)-2-(1-naphthalenyl)-acetohydrazide-enantiomer 1]: the “intrinsic activity (IA)” value is on record as 0.4.

Another experiment deals with T1, Human GHS-R (ghrelin receptor). Briefly: GHSR Agonist BACMAM FLIPR Assay (Method Z). Format: cell-based. To be noted: U2OS cells, maximum asymptote relative to maximum response of hGhrelin at 100 nM. As for the experimental part: as §1, §2
Master compound plates were prepared in 100% DMSO. 0.6 mM was the top concentration (giving 3 μM final concentration) and they were serially diluted 1 in 4. 1 μL from the master plate was transferred to a daughter plate, to which was added 50 μL of compound dilution (NaCl (145 mM) KCl (5 mM) CaCl2 (2 mM) MgCl2 (1 mM) HEPES (20 mM) D-(+)-Glucose (1 g/l), pluronic acid (0.05%), pH 7.3). This plate was used for the assay. Ghrelin was always prepared in compound dilution buffer containing 0.1% BSA.
Media was washed from cell plates, using a cell washer (leaving 20 μL of washing buffer (NaCl (145 mM)+KCl (5 mM)+CaCl2 (2 mM)+MgCl2 (1 mM)+HEPES (20 mM)+D-(+)-Glucose (1 g/l)+Probenecid (2.5 mM), pH 7.3). Cells were immediately loaded with loading buffer (washing buffer+pluronic acid (0.02%)+Fluo 4 dye (2 μM), and incubated at 37° C., for 60 min. After a second washing step (same as for the pre-loading, but leaving 30 μL of washing buffer), the plates were placed in a FLuorimetric Imaging Plate Reader (FLIPR, Molecular Devices) where 10 μL of compound, prepared according to method C above, was added to the cells and fluorescence measurements were taken. […] Percentage activation of the compounds was calculated by using the maximum asymptote of it's concentration response curve relative to the maximum response of the hGhrelin at 100 nM concentration.
Take `Cc1ccc(C(C(=O)NNc2cc(C(F)(F)F)cc(C(F)(F)F)c2)N2CCN3CCC[C@@H]3C2)cn1` (single isomer, unassigned; diastereoisomer 1) [Compound 92]: the percentage activation is > 40%.
On to `Cc1ncccc1C(C(=O)NNc1cc(C(F)(F)F)cc(C(F)(F)F)c1)N1CCN2CCC[C@@H]2C1` (single isomer, unassigned; diastereoisomer 1) [Compound 94], for which the percentage activation is > 40%.
The same measure, in the same setting: next, `O=C(NNc1cc(C(F)(F)F)cc(C(F)(F)F)c1)C(c1ccc2c(c1)OCCO2)N1CCN2CCC[C@@H]2C1` (single isomer, unassigned; diastereoisomer 1) [Compound 96]: > 40%.

The values above are taken from patent US20100286152A1, “N-PHENYL HYDRAZIDES AS MODULATORS OF THE GHRELIN RECEPTOR” (Glaxo Group Limited, priority 2007, published 2010).
